Data taken from ChEMBL document CHEMBL2440034, “Towards new C6-rigid S-DABO HIV-1 reverse transcriptase inhibitors: synthesis, biological investigation and molecular modeling studies” (Bioorg Med Chem, 2013).

What was measured:
[1] = Selectivity index, ratio of CC50 for human MT4 cells to EC50 for wild type HIV-1 3B infected in human MT4 cells; type: toxicity, cell-based; settings: read-out: Ratio CC50/EC50
[2] = Cytotoxicity against human MT4 cells assessed as cell viability after 5 days by MTT assay; type: cell-based
[3] = tested on: Human immunodeficiency virus 2; experiment: Antiviral activity against HIV-2 ROD infected in human MT4 cells assessed as protection against virus-induced cytopathogenicity after 5 days by MTT assay; type: functional, organism-based; settings: Human immunodeficiency virus 2, ISOLATE ROD, MT4, 120 h
[4] = tested on: Human immunodeficiency virus 1; experiment: Antiviral activity against HIV-1 RESO56 harboring RT K103N/Y181C double mutant infected in human MT4 cells assessed as protection against virus-induced cytopathogenicity after 5 days by MTT assay; type: functional, organism-based; settings: Human immunodeficiency virus 1, RESO56, MT4, 120 h
[5] = tested on: Human immunodeficiency virus 1; experiment: Antiviral activity against wild type HIV-1 3B infected in human MT4 cells assessed as protection against virus-induced cytopathogenicity after 5 days by MTT assay; type: functional, organism-based; settings: Human immunodeficiency virus 1, 3B, MT4, 120 h
[6] = target: Human immunodeficiency virus type 1 reverse transcriptase (Human immunodeficiency virus 1, UniProt Q72547); experiment: Inhibition of recombinant wild type HIV-1 reverse transcriptase p66/p51 expressed in Escherichia coli JM109 using poly(rA)/oligo(dT)16 (1:1.2) as template/primer after 40 mins by spectrofluorometric analysis
[7] = tested on: Human immunodeficiency virus 1; experiment: Potency index, ratio of DDI EC50 to compound EC50 for wild type HIV-1 3B infected in human MT4 cells; type: functional

Compound	selectivity ratio [1]	CC50 at 120 h [2]	EC50 [3]	EC50 [4]	EC50 [5]	IC50 [6]	Ratio EC50 [7]
COc1ccc(CSc2nc(C(=O)c3cccc(Cl)c3)c(C)c(=O)[nH]2)cc1	21	152 µM	> 152 µM	> 152 µM	7210 nM	–	–
COc1ccc(CSc2nc(C(=O)c3ccc(Cl)cc3)c(C)c(=O)[nH]2)cc1	–	≥ 151 µM	> 151 µM	–	≥ 151000 nM	–	–
COc1ccc(CSc2nc(C(=O)c3cccc(Br)c3)c(C)c(=O)[nH]2)cc1	13	201 µM	> 201 µM	> 201 µM	16000 nM	–	–
COc1ccc(CSc2nc(C(=O)c3ccc(Br)cc3)c(C)c(=O)[nH]2)cc1	≤ 1	252 µM	> 252 µM	–	≥ 252000 nM	–	–
COc1ccc(CSc2nc(C(=O)c3ccccc3F)c(C)c(=O)[nH]2)cc1	124	175 µM	> 175 µM	> 175 µM	1400 nM	2410 nM	–
COc1ccc(CSc2nc(C(=O)c3cccc(F)c3)c(C)c(=O)[nH]2)cc1	35	225 µM	> 225 µM	> 225 µM	6350 nM	–	–
COc1ccc(CSc2nc(C(=O)c3ccc(F)cc3)c(C)c(=O)[nH]2)cc1	–	≥ 325 µM	> 325 µM	–	≥ 325000 nM	–	–
CCc1c(C(=O)c2cccc(Br)c2)nc(SCc2ccc(OC)cc2)[nH]c1=O	84	98.9 µM	> 98.9 µM	> 98.9 µM	1180 nM	–	–
CCc1c(C(=O)c2cccc(F)c2)nc(SCc2ccc(OC)cc2)[nH]c1=O	436	167 µM	> 167 µM	> 167 µM	380 nM	190 nM	50
COc1ccc(CSc2nc(C(=O)c3ccc(Br)cc3)c(C(C)C)c(=O)[nH]2)cc1	≤ 1	42.5 µM	> 42.5 µM	–	≥ 42500 nM	–	–
COc1ccc(CSc2nc(C(=O)c3ccccc3F)c(C(C)C)c(=O)[nH]2)cc1	145	38.2 µM	> 38.2 µM	> 38.2 µM	270 nM	72 nM	50
COc1ccc(CSc2nc(C(=O)c3cccc(F)c3)c(C(C)C)c(=O)[nH]2)cc1	472	132 µM	> 132 µM	> 132 µM	290 nM	40 nM	50
COc1ccc(CSc2nc(C(=O)c3ccc(F)cc3)c(C(C)C)c(=O)[nH]2)cc1	21	135 µM	> 135 µM	> 135 µM	6520 nM	–	–
COc1ccc(CSc2nc(C(=O)c3ccc(C(C)(C)C)cc3)c(C)c(=O)[nH]2)cc1	≤ 1	126 µM	> 126 µM	–	≥ 126000 nM	–	–
COc1ccc(CSc2nc(C(=O)c3ccc(F)c(F)c3)c(C)c(=O)[nH]2)cc1	≤ 1	127 µM	> 127 µM	> 127 µM	≥ 127000 nM	–	–
COc1ccc(CSc2nc(C(=O)c3cc(F)cc(F)c3)c(C)c(=O)[nH]2)cc1	32	86.9 µM	> 86.9 µM	> 86.9 µM	2710 nM	–	–
CCc1c(C(=O)c2cc(F)cc(F)c2)nc(SCc2ccc(OC)cc2)[nH]c1=O	541	139 µM	> 139 µM	> 139 µM	260 nM	160 nM	50
CC(C)Nc1cccnc1N1CCN(C(=O)c2cc3cc(NS(C)(=O)=O)ccc3[nH]2)CC1 [DELAVIRDINE]	379	36.2 µM	–	> 36.2 µM	95 nM	–	–
O=c1[nH]cnc2c1ncn2[C@H]1CC[C@@H](CO)O1 [DIDANOSINE]	12	212 µM	15.3 µM	–	17200 nM	–	–
O=C1Nc2ccc(Cl)cc2[C@@](C#CC2CC2)(C(F)(F)F)O1 [EFAVIRENZ]	–	6.34 µM	–	0.46 µM	6.7 nM	–	–
Cc1ccnc2c1NC(=O)c1cccnc1N2C1CC1 [NEVIRAPINE]	–	15 µM	–	1.97 µM	84 nM	–	–
Nc1ccn([C@H]2CC[C@@H](CO)O2)c(=O)n1 [ZALCITABINE]	208	94.7 µM	–	–	460 nM	–	–
Cc1cn([C@H]2C[C@H](N=[N+]=[N-])[C@@H](CO)O2)c(=O)[nH]c1=O [ZIDOVUDINE]	15800	–	0.0064 µM	0.0066 µM	5.9 nM	–	–
